Measurements published in paper PMC5403781, “Heterologous expression of a Streptomyces cyaneus laccase for biomass modification applications” (AMB Express, 2017).
Like-named read-outs stand apart in the source and are kept apart here. Each block holds one compound with its values, some of them ahead of it.

How the values were obtained:
ScLac [1] = tested on: T1, ScLac; test: spectrophotometric oxidation, […] nm; assay type: biochemical, Streptomyces cyaneus; conditions: 100 mM MES pH 5.5, 30 °C; free enzyme, copper-loaded; substrate 5–95 µM; read-out: Guaiacol
T1 construct: C-terminal His6 tag (pET-22b(+), NdeI/XhoI), expressed in E. coli BL21 (DE3) Star; primers encode N-terminus METDIIER and C-terminal HGAGHTG before the LE-His6 tag; copper-loaded with CuSO4 after purification

ScLac [2] = conditions: read-out: ABTS; 100 mM MES pH 5.5, 30 °C; free enzyme, copper-loaded; substrate 5–95 µM
ScLac [3] = tested on: T1, ScLac; test: spectrophotometric oxidation, […] nm; assay type: biochemical, Streptomyces cyaneus; conditions: 100 mM MES pH 5.5, 30 °C; free enzyme, copper-loaded; substrate 5–95 µM; read-out: DMP

Km (ScLac [1]): 5.4 ± 1.9 µM
SMILES: COc1ccccc1O [guaiacol]

Km (ScLac [2]): 33.5 ± 27.9 µM
SMILES: CCn1c(=NN=c2sc3cc(S(=O)(=O)O)ccc3n2CC)sc2cc(S(=O)(=O)O)ccc21 [ABTS]

Km (ScLac [3]): 202 ± 34.8 µM
SMILES: COc1cccc(OC)c1O [DMP, 2,6-dimethoxyphenol]
